As usually defined, the EC50 is the concentration giving half of the maximal effect. Low readings indicate a more potent agent, high ones a less potent agent.

Structures are written as SMILES.

The subject of the assay is HCV replication. As to the kind of experiment: Replicon Assay (Huh-lucubineo-ET cells, luciferase readout). The class given is cell-based. To be noted: Hepatitis C virus; ET (Huh-lucubineo-ET) HCV replicon cell line; luciferase activity 48-72 hours after compound addition; 6 dilutions. As to the method:
A cell line, ET (Huh-lucubineo-ET) was used for screening of compounds of the present invention for inhibition of HCV replication. The ET cell line was stably transfected with RNA transcripts harboring a I389luc-ubi-neo/NS3-3′/ET; replicon with firefly luciferase-ubiquitin-neomycin phosphotransferase fusion protein and EMCV-IRES driven NS3-5B polyprotein containing the cell culture adaptive mutations (E1202G; T1280I; K1846T) (Krieger at al, 2001 and unpublished). The ET cells were grown in DMEM, supplemented with 10% fetal calf serum, 2 mM Glutamine, Penicillin (100 IU/mL)/Streptomycin (100 μg/mL), 1× nonessential amino acids, and 250 μg/mL G418 (“Geneticin”). They were all available through Life Technologies (Bethesda, Md.). The cells were plated at 0.5−1.0×10^4 cells/well in the 96 well plates and incubated for 24 hrs before adding the test compounds. The compounds were then added to the cells to achieve a final concentration of 5 or 50 μM. Luciferase activity was measured 48-72 hours later by adding a lysis buffer and the substrate (Catalog number Glo-lysis buffer E2661 and Bright-Glo luciferase system E2620 Promega, Madison, Wis.). Cells should not be too confluent during the assay. Percent inhibition of replication was plotted relative to no compound control. For EC50 (effective concentration at which 50% of the maximum inhibition is observed) determinations, 6 dilutions of each compound were used. Compounds were typically diluted 3 fold to span a concentration range of 250 fold. EC50 and similarly TC50 values were calculated by fitting % inhibition at each concentration to the following equation:
% inhibition=100%/[(EC50/[I])^b+1]
where b is Hill's coefficient.

In turn, `Fc1cc(C(F)(F)F)ccc1-c1ccc(Cn2cc3nc(-c4cccc(F)c4F)nc-3cn2)cn1` [Compound 251, 2-(2,3-Difluoro-phenyl)-5-[6-(2-fluoro-4-trifluoromethyl-phenyl)-pyridin-3-ylmethyl]-5H-imidazo[4,5-d]pyridazine] showed an EC50 not below 50000 nM.
With `COc1ccc(-c2cnc(Cn3cc4nc(-c5cccc(F)c5F)nc-4cn3)cn2)c(C(F)(F)F)c1` [Compound 306, 2-(2,3-Difluoro-phenyl)-5-[5-(4-methoxy-2-trifluoromethyl-phenyl)-pyrazin-2-ylmethyl]-5H-imidazo[4,5-d]pyridazine], the EC50 amounted to 23 nM.
Compound `CCCOc1ccc(-c2ccc(Cn3cc4nc(-c5cccc(F)c5F)nc-4cn3)nn2)c(C(F)(F)F)c1` [Compound 226, 2-(2,3-Difluoro-phenyl)-5-[6-(4-propoxy-2-trifluoromethyl-phenyl)-pyridazin-3-ylmethyl]-5H-imidazo[4,5-d]pyridazine] returned an EC50 of 4 nM.
`Fc1cccc(-c2nc3cnn(Cc4ccc(-c5ccc(Br)c(C(F)(F)F)c5)nc4)cc-3n2)c1F` [Compound 298, 5-[6-(4-Bromo-3-trifluoromethyl-phenyl)-pyridin-3-ylmethyl]-2-(2,3-difluorophenyl)-5H-imidazo[4,5-d]pyridazine]: the EC50 is not below 50000 nM.
For the compound `CC(C)Cc1ccc(-c2ccc(Cn3cc4nc(-c5cccc(F)c5F)nc-4cn3)nn2)c(C(F)(F)F)c1` [Compound 332, 2-(2,3-Difluoro-phenyl)-5-[6-(4-isobutyl-2-trifluoromethyl-phenyl)-pyridazin-3-ylmethyl]-5H-imidazo[4,5-d]pyridazine], the EC50 was 19 nM.
The same measure for `Fc1cccc(-c2nc3cnn(Cc4ccc(-c5ccc(C(F)(F)F)cc5C(F)(F)F)cn4)cc-3n2)c1F` [Compound 129, 5-[5-(2,4-Bis-trifluoromethyl-phenyl)-pyridin-2-ylmethyl]-2-(2,3-difluoro-phenyl)-5H-imidazo[4,5-d]pyridazine]: 19 nM; for `CCCCc1ccc(-c2ccc(Cn3cc4nc(-c5cccc(F)c5F)nc-4cn3)nn2)cc1` [Compound 115, 5-[6-(4-Butyl-phenyl)-pyridazin-3-ylmethyl]-2-(2,3-difluoro-phenyl)-5H-imidazo[4,5-d]pyridazine]: 1470 nM.
On to `Fc1cccc(-c2nc3cnn(Cc4ccc5occc5c4)cc-3n2)c1F` [Compound 283, 5-Benzofuran-5-ylmethyl-2-(2,3-difluoro-phenyl)-5H-imidazo[4,5-d]pyridazine], for which the EC50 was not below 50000 nM.
`COc1ccc(-c2ccc(Cn3cc4nc(-c5cccc(F)c5F)nc-4cn3)c(N)c2)c(C(F)(F)F)c1` [Compound 334, 4-[2-(2,3-Difluoro-phenyl)-imidazo[4,5-d]pyridazin-5-ylmethyl]-4′-methoxy-2′-trifluoromethyl-biphenyl-3-ylamine] showed an EC50 of 20 nM.
The compound `Fc1cccc(-c2nc3cnn(Cc4ccc(-c5ccc(-c6cn[nH]c6)cc5C(F)(F)F)nn4)cc-3n2)c1F` [Compound 203, 2-(2,3-Difluoro-phenyl)-5-{6-[4-(1H-pyrazol-4-yl)-2-trifluoromethyl-phenyl]-pyridazin-3-ylmethyl}-5H-imidazo[4,5-d]pyridazine] registered an EC50 of 21000 nM.
In the case of `Fc1cccc(-c2nc3cnn(Cc4ccc(Oc5ccccn5)cc4)cc-3n2)c1F` [Compound 314, 2-(2,3-Difluoro-phenyl)-5-[4-(pyridin-2-yloxy)-benzyl]-5H-imidazo[4,5-d]pyridazine] it was not below 50000 nM; in that of `COc1ccc(-c2ccc(Cn3cc4nc(-c5cccc(F)c5F)nc-4cn3)c(N)n2)c(C(F)(F)F)c1` [Compound 242, 3-[2-(2,3-Difluoro-phenyl)-imidazo[4,5-d]pyridazin-5-ylmethyl]-6-(4-methoxy-2-trifluoromethyl-phenyl)-pyridin-2-ylamine], 44 nM; in that of `Fc1cccc(-c2nc3cnn(Cc4ccc(-c5ccccn5)cc4)cc-3n2)c1F` [Compound 299, 2-(2,3-Difluoro-phenyl)-5-(4-pyridin-2-yl-benzyl)-5H-imidazo[4,5-d]pyridazine], not below 50000 nM.
`Nc1nc(-c2ccc(C(F)(F)F)cc2C(F)(F)F)ccc1Cn1cc2nc(-c3cccc(F)c3F)nc-2cn1` [Compound 360, 6-(2,4-Bis-trifluoromethyl-phenyl)-3-[2-(2,3-difluoro-phenyl)-imidazo[4,5-d]pyridazin-5-ylmethyl]-pyridin-2-ylamine] displayed an EC50 of 11 nM.
`O=[N+]([O-])c1cc(Cn2cc3nc(-c4cccc(F)c4F)nc-3cn2)ccc1Br` [Compound 311, 5-(4-Bromo-3-nitro-benzyl)-2-(2,3-difluoro-phenyl)-5H-imidazo[4,5-d]pyridazine]: the EC50 stood at 6540 nM.
Take `COc1ccc(-c2ccc(Cn3cc4nc(-c5ccccc5F)nc-4cn3)nn2)c(C(F)(F)F)c1` [Compound 317, 2-(2-Fluoro-phenyl)-5-[6-(4-methoxy-2-trifluoromethyl-phenyl)-pyridazin-3-ylmethyl]-5H-imidazo[4,5-d]pyridazine]: the EC50 turned out to be 64 nM.
For the compound `O=S(=O)(c1ccc(Cn2cc3nc(-c4cccc(F)c4F)nc-3cn2)cc1)N1CCOCC1` [Compound 275, 2-(2,3-Difluoro-phenyl)-5-[4-(morpholine-4-sulfonyl)-benzyl]-5H-imidazo[4,5-d]pyridazine], the EC50 is not below 50000 nM.
In the case of `COc1ccc(-c2cnc(Cn3cc4nc(-c5cccc(F)c5F)nc-4cn3)nc2)c(C(F)(F)F)c1` [Compound 265, 2-(2,3-Difluoro-phenyl)-5-[5-(4-methoxy-2-trifluoromethyl-phenyl)-pyrimidin-2-ylmethyl]-5H-imidazo[4,5-d]pyridazine] it was 228 nM; in that of `Fc1ccccc1-c1nc2cnn(Cc3ccc(-c4ccc(C(F)(F)F)cc4C(F)(F)F)cn3)cc-2n1` [Compound 267, 5-[5-(2,4-Bis-trifluoromethyl-phenyl)-pyridin-2-ylmethyl]-2-(2-fluoro-phenyl)-5H-imidazo[4,5-d]pyridazine], 1300 nM.
For `Fc1cccc(-c2nc3cnn(Cc4ccc(-n5cccn5)cc4)cc-3n2)c1F` [Compound 308, 2-(2,3-Difluoro-phenyl)-5-(4-pyrazol-1-yl-benzyl)-5H-imidazo[4,5-d]pyridazine], the EC50 was not below 50000 nM.
With `COc1ccc(-c2ccc(Cn3cc4nc(-c5cccc(F)c5F)nc-4cn3)nn2)cc1` [Compound 105, 2-(2,3-Difluoro-phenyl)-5-[6-(4-methoxy-phenyl)-pyridazin-3-ylmethyl]-5H-imidazo[4,5-d]pyridazine], the EC50 was 7400 nM.
`Cc1nc(Cn2cc3nc(-c4cccc(F)c4F)nc-3cn2)ccc1-c1ccc(C(F)(F)F)cc1C(F)(F)F` [Compound 337, 5-[5-(2,4-Bis-trifluoromethyl-phenyl)-6-methyl-pyridin-2-ylmethyl]-2-(2,3-difluoro-phenyl)-5H-imidazo[4,5-d]pyridazine]: a half-maximal response (EC50) required 166 nM.
In turn, `Fc1cccc(-c2nc3cnn(Cc4ccc(-c5ccc(OCCn6ccnc6)cc5C(F)(F)F)nn4)cc-3n2)c1F` [Compound 330, 2-(2,3-Difluoro-phenyl)-5-{6-[4-(2-imidazol-1-yl-ethoxy)-2-trifluoromethyl-phenyl]-pyridazin-3-ylmethyl}-5H-imidazo[4,5-d]pyridazine] came in with a half-maximal effective concentration (EC50) not below 50000 nM.
The same measure for `CCOc1ccc(-c2ccc(Cn3cc4nc(-c5ccccc5F)nc-4cn3)nn2)c(C(F)(F)F)c1` [Compound 315, 5-[6-(4-Ethoxy-2-trifluoromethyl-phenyl)-pyridazin-3-ylmethyl]-2-(2-fluoro-phenyl)-5H-imidazo[4,5-d]pyridazine]: 20 nM.
`CCCOc1ccc(-c2ccc(Cn3cc4nc(-c5ccccc5F)nc-4cn3)nn2)c(C(F)(F)F)c1` [Compound 316, 2-(2-Fluoro-phenyl)-5-[6-(4-propoxy-2-trifluoromethyl-phenyl)-pyridazin-3-ylmethyl]-5H-imidazo[4,5-d]pyridazine] registered an EC50 of 32 nM.
Take `Fc1cccc(-c2nc3cnn(Cc4ccc(Cl)nn4)cc-3n2)c1F` [Compound 307, 5-(6-Chloro-pyridazin-3-ylmethyl)-2-(2,3-difluoro-phenyl)-5H-imidazo[4,5-d]pyridazine]: the EC50 was not below 50000 nM.
On to `Cc1ccc(-c2ccc(Cn3cc4nc(-c5cccc(F)c5F)nc-4cn3)nn2)c(Cl)c1` [Compound 227, 5-[6-(2-Chloro-4-methyl-phenyl)-pyridazin-3-ylmethyl]-2-(2,3-difluoro-phenyl)-5H-imidazo[4,5-d]pyridazine], for which it took 97 nM to reach a half-maximal effect (EC50).
`COCCOc1ccc(-c2ccc(Cn3cc4nc(-c5cccc(F)c5F)nc-4cn3)nn2)c(C(F)(F)F)c1` [Compound 324, 2-(2,3-Difluoro-phenyl)-5-{6-[4-(2-methoxy-ethoxy)-2-trifluoromethyl-phenyl]-pyridazin-3-ylmethyl}-5H-imidazo[4,5-d]pyridazine] had an EC50 of 65 nM.
Compound `Cc1nc(-c2ccc(Cn3cc4nc(-c5cccc(F)c5F)nc-4cn3)cc2)no1` [Compound 277, 2-(2,3-Difluoro-phenyl)-5-[4-(5-methyl-[1,2,4]oxadiazol-3-yl)-benzyl]-5H-imidazo[4,5-d]pyridazine] displayed an EC50 not below 50000 nM.

For the origin of these results see US20090226398A1, “ANTI-VIRAL COMPOUNDS, COMPOSITIONS, AND METHODS OF USE” (Genelabs Technologies, Inc., priority 2008, published 2009).
